Paper PMC9319510, “The Multistage Antimalarial Compound Calxinin Perturbates P. falciparum Ca^2+ Homeostasis by Targeting a Unique Ion Channel” (Pharmaceutics, 2022)
pIC50: −log10 of the molar value.

System: T1, voltage T-type Ca2+ channel (α1H; Cav3.1)
T1 construct: gene CACNA1H; α1H cDNA in pcDNA3, expressed in HEK 293 cells; Cav3.1 would be α1G (CACNA1G)
Experiment: whole-cell patch clamp
Format: cell-based, Homo sapiens
Settings: HEK-293 cells stably expressing α1H; 5 mM CaCl2 external, pH 7.4; Vh -90 mV; positive control, data not shown

SMILES: CN1CCN(c2ncc(-c3cc(Cl)cc(Cl)c3Cl)c(N)n2)CC1 [Sipatrigine]
- pIC50: ~4.52
